These are literature values, as cited in patent US7605180B2, “Nateglinide-containing preparation” (Ajinomoto Co., Inc., priority 2000, dated 2009).

One series deals with blood glucose. Particulars: oral administration.

In the case of `CC(C)[C@H]1CC[C@H](C(=O)N[C@H](Cc2ccccc2)C(=O)O)CC1` [nateglinide, N-(trans-4-isopropylcyclohexylcarbonyl)-D-phenylalanine], the Water solubility result is “poorly water soluble”. Further, in the series on blood glucose, the Blood glucose-lowering effect entry is “excellent blood glucose-lowering effect”.
